# Assay results reported in patent publication US20230391826A1, “COMPOSITIONS AND METHODS FOR TREATING DISEASES” (Sanford Burnham Prebys Medical Discovery Institute, priority 2020, published 2023).
# “And” between values parts separate entries of the source, which are not always exact repeats. Equal values may be shown once. Read-outs that look alike come from different tables or passages of the source.
# How the values were obtained:
# [1] = Peptide solubility in PBS/H2O/DMSO; format: physicochemical
# Procedure: Peptide identity and purity are documented by mass spectrometry and high-performance liquid chromatography (HPLC). The peptide solubility values are determined. Concentrated peptide stocks are prepared in DMSO or H2O and stored frozen at −80° C.
# EphA2 = EphA2 (Homo sapiens, UniProt P29317); experiment: Quantitative FRET of EphA2 oligomerization in transiently transfected HEK293 cells; format: cell-based; design: expressed in transfected cells; host or cells: HEK293 (HEK293T), transient transfection
# Text: FIG. 4A-4E illustrates an example where dimers with different configurations induce EphA2 oligomerization and patching on the cell surface. (FIG. 4A-4D) Oligomerization curves comparing EphA2 WT and the G131Y and L223R/L254R/[…] interface mutants transiently expressed in HEK293 cells and treated with saturating concentrations of C-terminally linked dimer (2) or N-terminally linked dimer (5). The curves were obtained by fitting quantitative FRET data to monomer-oligomer models. […] Curves for higher order oligomerization are steeper than dimerization curves. (FIG. 4E) Two-photon integrated fluorescence images of HEK293 cells expressing EphA2-EYFP and EphA2-mTURQ and under hypo-osmotic conditions. The plasma membrane regions in the rectangular yellow outlines are enlarged in the insets at the bottom of each panel. […]
# To examine the effects of dimeric peptide ligands on EphA2 oligomerization (including dimerization and higher order clustering), quantitative FRET experiments were performed in live cells. […] FRET is then measured in hundreds of individual cells with different EphA2 expression levels (FIG. 12), and the data are combined to yield average oligomeric fractions at different EphA2 concentrations (FIG. 4A-4D). […]
# To obtain the data points for oligomerization curves (FIG. 12), the concentration of EphA2 in each small region of plasma membrane in which FRET efficiency was measured. […]
# [2] = target: T1, EphA2 extracellular domain fused to Fc (EphA2-Fc) (Homo sapiens, UniProt P29317); experiment: ELISA: inhibition of ephrinA5-AP binding to immobilized EphA2-Fc; details: Table 3; inhibition of EphA2-ephrinA5 interaction; averages ± SD; read-out: ICsa (nM) by ELISA
# T1 construct: immobilized EphA2 extracellular domain fused to the Fc portion of an antibody (EphA2-Fc)
# Text: (§1) FIG. 1A-1C illustrates an example of Potency and selectivity of EphA2-targeting dimeric peptides. (FIG. 1A) ELISAs comparing the ability of the peptides to inhibit binding of ephrin-A5 fused to alkaline phosphatase (ephrinA5-AP) to the immobilized EphA2 extracellular domain fused to the Fc portion of an antibody (EphA2-Fc). The graphs show averages ±SD from triplicate measurements from a representative experiment. IC50 values calculated from the fitted curves in each experiment are shown. Averages of IC50 values obtained from multiple experiments are shown in panel FIG. 1B and Table 3. The 10 nM peptide concentration is outlined in red. (FIG. 1B) Plot of the average IC50 values (listed in Table 3) for different ligands. […] (FIG. 1C) EphrinA5-AP binding to EphA receptors and ephrinB2-AP binding to EphB receptors in the presence of dimeric peptides representing each of the three configurations. Values are normalized to ephrin binding without peptide. The graphs show averages and SDs from triplicate measurements (with each measurement shown as a dot).
# other Eph receptors = experiment: ELISA selectivity: ephrinA5-AP binding to EphA receptors and ephrinB2-AP binding to EphB receptors; details: peptide at ~100-fold its IC50
# Text: as §1
# An important feature of the original YSA peptide and its monomeric derivatives is that they specifically bind to EphA2, whereas the ephrinA ligands promiscuously binds to all EphA receptors (9, 31, 37, 53). […]
# T1 sequence (P29317 24-537 limits assumed): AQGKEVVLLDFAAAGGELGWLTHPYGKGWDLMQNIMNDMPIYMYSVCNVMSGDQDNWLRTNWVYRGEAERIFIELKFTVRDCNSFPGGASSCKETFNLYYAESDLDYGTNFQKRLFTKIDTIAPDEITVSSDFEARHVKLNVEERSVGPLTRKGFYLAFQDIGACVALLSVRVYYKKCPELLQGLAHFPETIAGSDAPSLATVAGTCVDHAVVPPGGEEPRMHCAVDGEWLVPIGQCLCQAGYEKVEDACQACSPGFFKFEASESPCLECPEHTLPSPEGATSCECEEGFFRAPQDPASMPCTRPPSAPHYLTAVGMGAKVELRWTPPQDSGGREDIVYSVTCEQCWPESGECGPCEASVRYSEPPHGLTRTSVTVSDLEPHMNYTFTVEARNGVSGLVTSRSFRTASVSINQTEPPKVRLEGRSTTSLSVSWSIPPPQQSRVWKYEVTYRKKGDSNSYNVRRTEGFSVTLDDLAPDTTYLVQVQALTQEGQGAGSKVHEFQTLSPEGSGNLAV
# Sequence of EphA2 (P29317 24-976): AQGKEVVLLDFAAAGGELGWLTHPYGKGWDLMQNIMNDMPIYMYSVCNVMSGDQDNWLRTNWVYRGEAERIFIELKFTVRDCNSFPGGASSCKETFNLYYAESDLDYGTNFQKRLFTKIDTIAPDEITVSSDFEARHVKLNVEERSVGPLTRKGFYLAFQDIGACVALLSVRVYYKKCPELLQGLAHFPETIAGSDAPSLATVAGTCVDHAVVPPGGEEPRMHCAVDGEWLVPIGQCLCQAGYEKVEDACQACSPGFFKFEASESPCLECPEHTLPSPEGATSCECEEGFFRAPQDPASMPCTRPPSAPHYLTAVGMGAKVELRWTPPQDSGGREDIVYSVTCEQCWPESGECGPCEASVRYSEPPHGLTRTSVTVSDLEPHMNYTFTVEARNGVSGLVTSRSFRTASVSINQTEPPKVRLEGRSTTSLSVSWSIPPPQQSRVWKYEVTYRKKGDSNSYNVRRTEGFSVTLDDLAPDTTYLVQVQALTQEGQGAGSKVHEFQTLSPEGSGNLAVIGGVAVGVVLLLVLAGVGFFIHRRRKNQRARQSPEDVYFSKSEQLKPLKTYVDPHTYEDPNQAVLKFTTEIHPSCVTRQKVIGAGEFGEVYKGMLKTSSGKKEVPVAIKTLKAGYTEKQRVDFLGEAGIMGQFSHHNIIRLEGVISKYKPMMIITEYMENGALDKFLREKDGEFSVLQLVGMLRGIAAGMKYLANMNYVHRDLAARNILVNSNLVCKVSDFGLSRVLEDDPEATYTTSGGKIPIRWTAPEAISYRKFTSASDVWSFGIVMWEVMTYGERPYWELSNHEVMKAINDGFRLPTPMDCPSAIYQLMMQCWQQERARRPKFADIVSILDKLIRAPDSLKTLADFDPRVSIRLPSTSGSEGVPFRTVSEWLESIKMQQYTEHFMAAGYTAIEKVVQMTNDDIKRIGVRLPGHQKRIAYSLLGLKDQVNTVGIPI
compound,measurement,setting,value
"CC(C)C[C@H](NC(=O)[C@H](Cc1c[nH]c2ccccc12)NC(=O)[C@H](C)NC(=O)CNC(=O)[C@@H](N)CSSC[C@H](N)C(=O)NCC(=O)N[C@@H](C)C(=O)N[C@@H](Cc1c[nH]c2ccccc12)C(=O)N[C@@H](CC(C)C)C(=O)N[C@@H](C)C(=O)N[C@@H](Cc1ccc(O)cc1)C(=O)N1CCC[C@H]1C(=O)N[C@@H](CC(=O)O)C(=O)N[C@@H](CO)C(=O)N[C@H](C(=O)N1CCC[C@H]1C(=O)N[C@@H](Cc1ccc(O)cc1)C(=O)N[C@@H](CCCNC(=N)N)C(=O)N1CCC[C@H]1C(=O)N[C@@H](CCCCN)C(=O)O)C(C)C)C(=O)N[C@@H](C)C(=O)N[C@@H](Cc1ccc(O)cc1)C(=O)N1CCC[C@H]1C(=O)N[C@@H](CC(=O)O)C(=O)N[C@@H](CO)C(=O)N[C@H](C(=O)N1CCC[C@H]1C(=O)N[C@@H](Cc1ccc(O)cc1)C(=O)N[C@@H](CCCNC(=N)N)C(=O)N1CCC[C@H]1C(=O)N[C@@H](CCCCN)C(=O)O)C(C)C [compound 5, CGA-WLA-YRPK dimer (N-ter)]",solubility,"[1]; DMSO, third of PBS/H2O/DMSO, read-out: Solubility in DMSO",15000 µg/mL
same,solubility,"[1]; PBS, Table 4, first of PBS/H20/DMSO, read-out: Solubility in PBS",5000 µg/mL
same,solubility,"[1]; PBS, first of PBS/H2O/DMSO, read-out: Solubility in PBS",5000 µg/mL
same,solubility,"[1]; water, Table 4, second of PBS/H20/DMSO, read-out: Solubility in H20",5000 µg/mL
same,solubility,"[1]; water, second of PBS/H2O/DMSO, read-out: Solubility in H2O",5000 µg/mL
same,"best-fit FRET oligomerization model, EphA2 WT","EphA2; saturating peptide, HEK293 cells",higher order oligomer model
same,"EphA2 patches on the plasma membrane, EphA2 WT",EphA2; swollen HEK293 cells,formation of fluorescent patches
same,IC50,[2],0.65 nM and 0.66 nM
same,selectivity for EphA2 / binding to other Eph receptors,other Eph receptors,do not bind to other Eph receptors
